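Interpolation was linear, between the two tested concentrations surrounding the appropriate level; five concentrations were tested over 48 hours in 96-well plates. The concentration for 50% growth inhibition is given as GI50.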 Active and inactive are the calls of the source. Rule as the data show it: active = GI50 up to about 1.1 µM and inactive = higher.
Experiments:
Assay in all cases: inhibition of tumour cell growth, NCI panel, 48 h
DMS-114 = system: DMS-114
DMS-273 = system: DMS-273
HOP-18 = system: HOP-18
LXFL 529 = system: LXFL 529
M19-MEL = system: M19-MEL
RXF 631 = system: RXF 631
SNB-78 = system: SNB-78
XF498 = system: XF498

| SMILES | GI50 (DMS-114) | GI50 (DMS-273) | GI50 (HOP-18) | GI50 (LXFL 529) | GI50 (M19-MEL) | GI50 (RXF 631) | GI50 (SNB-78) | GI50 (XF498) |
| --- | --- | --- | --- | --- | --- | --- | --- | --- |
| CN1N=CSC12C(=O)N(c1ccccc1)C(=O)N2c1ccccc1 (stereo not given) | > 100 µM (inactive) | > 100 µM (inactive) | < 0.01 µM (active) | > 100 µM (inactive) | > 100 µM (inactive) | > 100 µM (inactive) | > 100 µM (inactive) | > 100 µM (inactive) |
| FC(F)(F)c1nc(-c2ccccc2)oc1Sc1nnc(Sc2oc(-c3ccccc3)nc2C(F)(F)F)s1 | 6.15 µM (inactive) | 46.8 µM (inactive) | > 100 µM (inactive) | 27.8 µM (inactive) | 23.2 µM (inactive) | 36.9 µM (inactive) | 34.1 µM (inactive) | 9.06 µM (inactive) |
| COCCOc1cc(C)cc(/C=C(C)/C=C/C2=C(C)CCCC2(C)C)n1 | 28.1 µM (inactive) | 48.5 µM (inactive) | > 100 µM (inactive) | 45.8 µM (inactive) | 32.8 µM (inactive) | 59.8 µM (inactive) | 81.3 µM (inactive) | 43.6 µM (inactive) |
| O=C1c2cccc3cccc(c23)C(=O)N1CCCN1CCN(CCCN2C(=O)c3cccc4cccc(c34)C2=O)CC1 | > 100 µM (inactive) | > 100 µM (inactive) | > 100 µM (inactive) | > 100 µM (inactive) | > 100 µM (inactive) | > 100 µM (inactive) | > 100 µM (inactive) | > 100 µM (inactive) |
| O=C(Nc1ccccc1[N+](=O)[O-])c1ccccc1 | 70.1 µM (inactive) | > 100 µM (inactive) | > 100 µM (inactive) | > 100 µM (inactive) | > 100 µM (inactive) | 64.1 µM (inactive) | > 100 µM (inactive) | > 100 µM (inactive) |

From ChEMBL document CHEMBL1201862, “PubChem BioAssay data set” (2004)
